Measured values published in US20040235982A1, “Polymer emulsions resistant to biodeterioration” (priority 2003, published 2004).
Structures can show the parent of a compound that is named as a salt. Where two headings read alike, the source gives them in different places.

Assays:
mixed bacterial inoculum [1] = settings: for potentiation of the cationic compounds (in words) / preservative efficacy (in words): AIRFLEX 192; for potentiation of the cationic compounds (in words): other metal chelating agent with cationic compound; for Inoculations Passed: AIRFLEX 192 VAE polymer
Description: The following procedure was used to assess the preservative efficacy of several cationic compounds in an anionic surfactant stabilized VAE copolymer emulsion containing less than 1000 ppm vinyl acetate monomer:
(§1) Aeromonas hydrophilia, Alcaligenes faecalis, Corynebacterium ammoniagenes, Enterobacter aerogenes, Escherichia coli, Klebsiella pneumoniae, Pseudomonas aeruginosa, Proteus vulgaris, Providencia rettgeri, Pseudomonas stutzeri, Shewanella putrefaciens, Serratia liquefaciens, Acinetobacter baumannii, Burkholderia cepacia, Chryseobacterium meningosepticum, Sphingobacterium spiritivorum, Ralstonia pickettii, and Gluconoacetobacter liquefaciens.
(§2) Each bacterial culture was individually grown on nutrient agar slants, except GABL was grown on potato dextrose agar slants, by inoculating the agar surfaces. The nutrient agar slants were incubated for 24-48 hours at 30° C. and the potato dextrose agar slants were incubated for 48-72 hours at 25° C. […] The washings from all of the slants were combined into one sterile, Erlenmeyer flask.
(§3) Rapid Automated Bacterial Impedance Technique (RABIT), supplied by Microbiology International, and manufactured by Don Whitley Scientific, Ltd. utilizes the principal of impedance microbiology to detect and assess microbial activity in a given sample. Using the RABIT, microbial metabolism is monitored by measuring the amount of carbon dioxide produced by actively respiring microorganisms. The electrodes in the RABIT test cells are partially covered with alkaline agar containing potassium hydroxide. As inoculated test samples are monitored on the RABIT, carbon dioxide produced from microbial metabolism is absorbed by the alkaline agar resulting in a change in conductivity. Conductivity is monitored with time and the time to reach a pre-specified rate of reduction in conductivity is termed the time to detection (TTD). Therefore, the shorter the TTD, the higher the number of microorganisms present. Failure can be defined as three successive decreases in conductivity equal to or greater than a pre-specified value (−10 microSiemens is recommended by the manufacturer) at any time during the 72 hour RABIT monitoring period. Alternatively, failure can be defined as a pre-specified total change in conductivity.
(§4) Samples (50 g each) of each test emulsion containing a test antimicrobial agent were inoculated with 1.0 mL of the mixed bacterial inoculum. After mixing well, the samples were then placed in a 30° C. incubator. After 1, 2, and 6 days of incubation, each sample was streak plated onto nutrient agar and potato dextrose agar to assess the level of surviving microorganisms. The nutrient agar plates were incubated at 30° C. for 48 hours before assessing the growth. […] On the seventh day of incubation, each test emulsion sample was inoculated again with a freshly prepared mixed bacterial inoculum, mixed well, then placed back into the incubator. The samples were again streak plated onto nutrient agar and potato dextrose agar after incubating for 1, 2, and 6 days since the second inoculation. On the fourteenth day after the test was initiated, the test emulsions were inoculated a third time with another freshly prepared mixed bacterial inoculum and then placed back into the incubator. The samples were again streak plated onto nutrient agar and potato dextrose agar after 1, 2, 6, and 13 days of incubation since the third inoculation to assess surviving microorganisms. Test failure is defined as a microbial viable count >300 CFU/10 μL observed from the nutrient agar or potato dextrose agar streak plate assessments.
(§5) A small amount of a microbial nutrient (typically yeast extract) was added to each emulsion test sample (50 g) containing a test antimicrobial agent. The resulting samples were then inoculated with 1.0 mL of the mixed bacterial inoculum. After mixing well, an aliquot (5 g) of each test sample was placed into separate RABIT indirect conductivity tubes.

mixed bacterial inoculum [2] = settings: for potentiation of the cationic compounds (in words) / preservative efficacy (in words): AIRFLEX 410; for potentiation of the cationic compounds (in words): other metal chelating agent with cationic compound; for Inoculations Passed: AIRFLEX 410 VAE polymer
Description: as §1, §2, §3, §4
as §5, with “tubes. The indirect conductivity tubes were then placed into the RABIT incubator modules set at 30° C. and the conductivity changes monitored for up to 72 hours. The remainder of each test sample was stored in a 30° C. incubator during the RABIT monitoring period.” for “tubes.”

yeasts and molds = assay: Fungal biochallenge test in Airflex 410 VAE polymer emulsion; settings: for Growth on PDA / Surface Fungal Growth: 200 ppm; for Growth on PDA: streak plate after 28 days incubation; for Surface Fungal Growth: visual after 28 days at 25° C.
[3] = biocide dosage 300 ppm active ingredient
[4] = metal chelating agent by itself
[5] = biocide dosage 1000 ppm active ingredient
[6] = cationic compound alone, dosage of 300 ppm or similar dosages

## O=C(O)CC(O)(CC(=O)O)C(=O)O [Citric acid, sodium salt]
Mixed bacterial inoculum [1]
  potentiation of the cationic compounds (in words): do not exhibit potentiation
Mixed bacterial inoculum [1]; [3]
  Inoculations Passed: 0
Mixed bacterial inoculum [2]
  potentiation of the cationic compounds (in words): do not exhibit potentiation

## O=C([O-])CN(CCN(CC(=O)[O-])CC(=O)[O-])CC(=O)[O-].[Na+].[Na+].[Na+].[Na+] [EDTA salt, tetrasodium salt of ethylenediamine tetraacetic acid]
Mixed bacterial inoculum [1]; [4]
  preservative efficacy (in words): inadequate
Mixed bacterial inoculum [1]; [5]
  Inoculations Passed: 0
Mixed bacterial inoculum [2]; [4]
  preservative efficacy (in words): inadequate
Mixed bacterial inoculum [2]; [5]
  Inoculations Passed: 0
Yeasts and molds
  Growth on PDA: Dense
  Surface Fungal Growth: Slight Growth
Yeasts and molds; used by itself
  protection against the growth of yeasts and molds (in words): no protection

## CCCCCCCCCC[N+](C)(C)CCCCCCCCCC.[Cl-] [BTC 1010, Didecyldimethylammonium chloride]
Mixed bacterial inoculum [1]; [6]
  preservative efficacy (in words): no preservative efficacy
Mixed bacterial inoculum [1]; [3]
  Inoculations Passed: 0
Mixed bacterial inoculum [2]; [6]
  preservative efficacy (in words): no preservative efficacy
Mixed bacterial inoculum [2]; [3]
  Inoculations Passed: 0
Yeasts and molds
  Growth on PDA: Dense
  Surface Fungal Growth: Moderate Growth

## CCCCCCCCCCCCCCCC[n+]1ccccc1 [CPC, cetylpyridinium chloride]
Mixed bacterial inoculum [1]; [3]
  Inoculations Passed: 0
Mixed bacterial inoculum [2]; [3]
  Inoculations Passed: 0

## O=P([O-])([O-])[O-].[Na+].[Na+].[Na+] [Trisodium phosphate]
Mixed bacterial inoculum [1]; [3]
  Inoculations Passed: 0

## O=C([O-])c1ccccc1O.[Na+] [Salicylic acid, sodium salt]
Mixed bacterial inoculum [1]; [3]
  Inoculations Passed: 0

## CCCCCCCCCCCCNC(=N)N.Cl [DGH, n-dodecylguanidine hydrochloride]
Mixed bacterial inoculum [1]; biocide dosage 400 ppm active ingredient
  Inoculations Passed: 0
Mixed bacterial inoculum [2]; [3]
  Inoculations Passed: 0

## O=C(O)/C=C\C(=O)O [Maleic acid, sodium salt]
Mixed bacterial inoculum [1]
  potentiation of the cationic compounds (in words): do not exhibit potentiation
Mixed bacterial inoculum [1]; [3]
  Inoculations Passed: 0
Mixed bacterial inoculum [2]
  potentiation of the cationic compounds (in words): do not exhibit potentiation
